Data from the supplement of paper PMC10307832.

Assays:
Experiment in all cases: relative viability (nuclei count vs DMSO), 5 days (fraction); higher = more cells survive
Wnt-C59 + Olaparib = compound: CC1=NC=CC(=C1)C2=CC=C(C=C2)CC(=O)NC3=CC=C(C=C3)C4=CN=CC=C4 [Wnt-C59] + O=C(c1cc(Cc2n[nH]c(=O)c3ccccc23)ccc1F)N1CCN(C(=O)C2CC2)CC1 [Olaparib] (partner 8 µM)
Summary of the method: (§1)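 The day after seeding in 1536-well plates, lung cancer cell lines were treated by pin tool with a single drug, or with a fixed anchor-drug dose together with five library-drug doses (not always all listed) in √10 steps. After 5 days, a combined fix-and-stain solution (final 0.05% Triton X-100, 1% formaldehyde, 1 ug/ml Hoechst) was added. Nuclei counted on 4× images gave relative viability as treated counts over vehicle counts, reported as the median of duplicate plates.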

Lapatinib + Alpelisib = compound: CS(=O)(=O)CCNCc1ccc(-c2ccc3ncnc(Nc4ccc(OCc5cccc(F)c5)c(Cl)c4)c3c2)o1 [Lapatinib] + Cc1nc(NC(=O)N2CCC[C@H]2C(N)=O)sc1-c1ccnc(C(C)(C)C(F)(F)F)c1 [Alpelisib] (partner 2 µM)
Summary of the method: as §1

Lapatinib + Pictilisib = compound: CS(=O)(=O)CCNCc1ccc(-c2ccc3ncnc(Nc4ccc(OCc5cccc(F)c5)c(Cl)c4)c3c2)o1 [Lapatinib] + CS(=O)(=O)N1CCN(Cc2cc3nc(-c4cccc5[nH]ncc45)nc(N4CCOCC4)c3s2)CC1 [Pictilisib] (partner 1 µM)
Summary of the method: as §1

Lapatinib + Foretinib = compound: CS(=O)(=O)CCNCc1ccc(-c2ccc3ncnc(Nc4ccc(OCc5cccc(F)c5)c(Cl)c4)c3c2)o1 [Lapatinib] + COc1cc2c(Oc3ccc(NC(=O)C4(C(=O)Nc5ccc(F)cc5)CC4)cc3F)ccnc2cc1OCCCN1CCOCC1 [Foretinib] (partner 0.25 µM)
Summary of the method: as §1

Row | Cell Line | relative viability (Wnt-C59 + Olaparib; first compound 0.001 µM) | relative viability (Wnt-C59 + Olaparib; first compound 0.01 µM) | relative viability (Wnt-C59 + Olaparib; first compound 0.03162 µM) | relative viability (Wnt-C59 + Olaparib; first compound 0.1 µM) | relative viability (Lapatinib + Alpelisib; first compound 0.02 µM) | relative viability (Lapatinib + Alpelisib; first compound 0.06325 µM) | relative viability (Lapatinib + Alpelisib; first compound 0.2 µM) | relative viability (Lapatinib + Alpelisib; first compound 0.6325 µM) | relative viability (Lapatinib + Alpelisib; first compound 2 µM) | relative viability (Lapatinib + Pictilisib; first compound 0.02 µM) | relative viability (Lapatinib + Pictilisib; first compound 0.06325 µM) | relative viability (Lapatinib + Pictilisib; first compound 0.2 µM) | relative viability (Lapatinib + Pictilisib; first compound 0.6325 µM) | relative viability (Lapatinib + Pictilisib; first compound 2 µM) | relative viability (Lapatinib + Foretinib; first compound 0.2 µM) | relative viability (Lapatinib + Foretinib; first compound 0.6325 µM) | relative viability (Lapatinib + Foretinib; first compound 2 µM) | relative viability (Lapatinib + Foretinib; first compound 0.06325 µM) | relative viability (Lapatinib + Foretinib; first compound 0.02 µM)
1 | NCI-H2023 | 0.498 | 0.517 | 0.555 | 0.411 | 0.53 | 0.576 | 0.528 | 0.553 | 0.378 | 0.164 | 0.15 | 0.262 | 0.276 | 0.199 | 0.685 | 0.437 | 0.357 |  | 
2 | NCI-H2085 | 0.795 | 0.769 | 0.822 | 0.744 | 0.869 | 0.845 | 0.932 | 1 | 0.694 | 0.389 | 0.454 | 0.553 | 0.54 | 0.45 | 0.899 | 0.862 | 0.535 | 0.737 | 
3 | NCI-H2087 | 0.608 | 0.657 | 0.688 | 0.722 | 1.12 | 1.06 | 1.21 | 1.01 | 0.931 | 0.472 | 0.737 | 1.03 | 0.963 | 0.802 | 1.17 | 0.994 | 0.962 | 0.942 | 
4 | NCI-H2126 | 0.896 | 0.952 | 0.88 | 0.905 |  | 0.587 | 0.668 | 0.677 | 0.549 |  | 0.402 | 0.474 | 0.49 | 0.431 | 1.13 | 1.03 | 0.612 |  | 
5 | NCI-H2170 | 0.631 | 0.568 | 0.649 | 0.499 | 0.76 | 0.551 | 0.477 | 0.376 | 0.21 | 0.281 | 0.207 | 0.275 | 0.244 | 0.237 | 0.784 | 0.655 | 0.25 | 0.961 | 1.05
6 | NCI-H2228 | 1.04 | 0.635 | 0.641 | 0.734 | 0.675 | 0.688 | 0.811 | 0.907 | 0.59 | 0.51 | 0.321 | 0.567 | 0.403 | 0.259 | 0.96 | 0.826 | 0.701 | 0.714 | 0.837
7 | NCI-H2347 | 0.554 | 0.541 | 0.615 | 0.593 | 0.901 | 1.01 | 1.07 | 0.844 | 1.02 | 0.598 | 0.673 | 0.663 | 0.646 | 0.873 | 0.854 | 0.994 | 1.02 | 0.694 | 
8 | NCI-H2405 | 0.851 | 0.879 | 0.898 | 0.861 |  | 0.609 | 0.733 | 0.781 | 0.689 |  | 0.412 | 0.428 | 0.398 | 0.397 | 1.05 | 1.02 | 0.92 | 0.911 | 1.04
9 | NCI-H3122 | 0.633 | 0.549 | 0.637 | 0.504 | 0.714 | 0.725 | 0.752 | 0.691 | 0.771 | 0.564 | 0.481 | 0.636 | 0.603 | 0.751 | 0.96 | 0.872 | 0.928 | 0.901 | 0.944
10 | PC-3 [JPC-3] | 1.18 | 1.21 | 1.22 | 1.16 |  | 1.04 | 1.02 | 0.988 | 0.585 |  | 0.687 | 0.621 | 0.769 | 0.512 | 1.03 | 1.09 | 0.471 | 0.989 | 1.04
11 | PC-14 | 0.26 | 0.248 | 0.342 | 0.292 | 0.823 | 0.915 | 0.883 | 0.864 | 0.783 | 0.543 | 0.641 | 0.768 | 0.804 | 0.121 | 1.03 | 0.873 | 0.78 | 0.913 | 0.864
12 | RERF-LC-KJ | 0.787 | 0.846 | 1.12 | 0.877 | 0.729 | 0.463 | 0.673 | 0.655 | 0.468 | 0.472 | 0.907 | 0.595 | 0.438 | 0.325 | 0.924 | 0.85 | 0.759 | 0.794 | 0.887
13 | SK-LU-1 | 0.444 | 0.476 | 0.4 | 0.434 |  | 0.953 | 0.99 | 1.1 | 0.977 |  | 0.504 | 0.634 | 0.754 | 0.57 | 0.857 | 0.8 | 0.883 | 0.789 | 0.773
14 | SK-MES-1 | 0.662 | 0.684 | 0.863 | 0.615 | 0.698 |  | 0.709 | 0.629 | 0.33 | 0.36 | 0.3 | 0.235 | 0.257 | 0.199 | 0.969 | 0.908 | 0.516 | 0.499 | 0.826
15 | SW 1573 | 0.449 | 0.445 | 0.551 | 0.39 | 0.705 | 0.648 | 0.635 | 0.821 | 0.843 | 0.471 | 0.444 | 0.61 | 0.452 | 0.533 | 0.86 | 0.922 | 0.886 | 0.601 | 1.04
